Tests used:
Type in all cases: cell-based
human TLR8 = target: T1, human TLR8 (Homo sapiens, UniProt Q9NR97); test: TLR8 inhibition reporter assay (HEK-Blue SEAP reporter, R848 stimulation); conditions: HEK-Blue cells overexpressing human TLR8, SEAP reporter, R848 15.9 μM, 22 hour incubation
T1 construct: host or cells: HEK-Blue cells
T1 sequence (Q9NR97 27-1041): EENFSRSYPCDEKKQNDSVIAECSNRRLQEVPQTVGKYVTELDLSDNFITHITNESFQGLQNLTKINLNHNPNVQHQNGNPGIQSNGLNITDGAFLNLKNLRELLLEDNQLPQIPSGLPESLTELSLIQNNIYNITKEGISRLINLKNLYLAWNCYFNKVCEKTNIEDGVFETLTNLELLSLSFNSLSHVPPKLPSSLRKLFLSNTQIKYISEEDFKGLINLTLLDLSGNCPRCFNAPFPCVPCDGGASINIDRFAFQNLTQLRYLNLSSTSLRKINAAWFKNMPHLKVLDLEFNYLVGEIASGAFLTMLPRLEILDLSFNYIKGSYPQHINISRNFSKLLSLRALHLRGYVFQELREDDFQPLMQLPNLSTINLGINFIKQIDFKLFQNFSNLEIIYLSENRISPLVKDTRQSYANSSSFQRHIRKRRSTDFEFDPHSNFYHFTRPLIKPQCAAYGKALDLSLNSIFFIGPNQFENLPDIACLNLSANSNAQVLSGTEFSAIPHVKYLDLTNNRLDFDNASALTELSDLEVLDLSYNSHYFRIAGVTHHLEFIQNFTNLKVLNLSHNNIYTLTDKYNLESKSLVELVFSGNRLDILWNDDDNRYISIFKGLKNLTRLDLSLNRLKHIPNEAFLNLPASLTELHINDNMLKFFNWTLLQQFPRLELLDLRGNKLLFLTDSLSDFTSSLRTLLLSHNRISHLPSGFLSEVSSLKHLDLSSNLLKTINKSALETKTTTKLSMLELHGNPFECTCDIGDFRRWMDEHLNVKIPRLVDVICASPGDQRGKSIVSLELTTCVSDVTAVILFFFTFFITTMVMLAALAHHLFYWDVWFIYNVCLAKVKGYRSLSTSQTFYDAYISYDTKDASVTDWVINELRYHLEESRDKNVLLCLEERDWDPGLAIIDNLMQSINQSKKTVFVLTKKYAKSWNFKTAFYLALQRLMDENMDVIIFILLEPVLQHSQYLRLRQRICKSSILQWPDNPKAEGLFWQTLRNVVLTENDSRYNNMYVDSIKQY
Method in brief: (§1)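 HEK-Blue cells overexpressing human TLR7, TLR8 or TLR9 carry a SEAP reporter driven by NF-κB/AP-1 sites. Compounds (0.05 nM–50 μM) were preincubated 30 min at room temperature, then cells were stimulated with gardiquimod 7.5 μM (TLR7), R848 15.9 μM (TLR8) or ODN2006 5 nM (TLR9) for 22 h at 37 °C.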

human TLR9 = target: T2, human TLR9 (Homo sapiens, UniProt Q9NR96); test: TLR9 inhibition reporter assay (HEK-Blue SEAP reporter, ODN2006 stimulation); conditions: HEK-Blue cells overexpressing human TLR9, SEAP reporter, ODN2006 5 nM, 22 hour incubation
T2 construct: host or cells: HEK-Blue cells
T2 sequence (Q9NR96 26-1032): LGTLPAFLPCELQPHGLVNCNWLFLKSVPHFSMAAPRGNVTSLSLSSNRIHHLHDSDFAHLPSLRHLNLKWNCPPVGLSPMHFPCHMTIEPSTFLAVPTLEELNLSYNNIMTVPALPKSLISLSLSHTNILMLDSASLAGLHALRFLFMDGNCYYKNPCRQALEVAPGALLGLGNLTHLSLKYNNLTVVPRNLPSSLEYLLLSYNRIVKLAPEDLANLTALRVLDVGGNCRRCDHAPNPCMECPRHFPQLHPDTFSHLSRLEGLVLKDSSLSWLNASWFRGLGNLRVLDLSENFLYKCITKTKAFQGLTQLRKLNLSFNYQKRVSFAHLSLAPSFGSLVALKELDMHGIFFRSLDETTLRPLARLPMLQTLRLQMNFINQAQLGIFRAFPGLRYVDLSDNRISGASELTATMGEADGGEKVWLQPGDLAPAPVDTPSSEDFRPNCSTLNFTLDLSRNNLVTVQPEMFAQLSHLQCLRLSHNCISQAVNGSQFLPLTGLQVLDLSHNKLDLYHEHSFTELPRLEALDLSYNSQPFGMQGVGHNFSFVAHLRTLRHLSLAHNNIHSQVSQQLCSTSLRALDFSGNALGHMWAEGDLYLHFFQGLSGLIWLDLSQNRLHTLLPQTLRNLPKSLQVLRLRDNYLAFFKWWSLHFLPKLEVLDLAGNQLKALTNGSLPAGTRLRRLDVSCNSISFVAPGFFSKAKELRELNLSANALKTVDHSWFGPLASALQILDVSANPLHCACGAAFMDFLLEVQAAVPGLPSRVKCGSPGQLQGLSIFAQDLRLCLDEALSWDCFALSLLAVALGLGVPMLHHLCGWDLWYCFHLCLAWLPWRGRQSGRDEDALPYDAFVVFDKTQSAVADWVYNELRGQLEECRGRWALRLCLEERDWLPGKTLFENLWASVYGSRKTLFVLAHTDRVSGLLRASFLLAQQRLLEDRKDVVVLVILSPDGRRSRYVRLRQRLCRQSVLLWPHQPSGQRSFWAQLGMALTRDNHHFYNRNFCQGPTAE
Method in brief: as §1

human TLR7 = target: T3, human TLR7 (Homo sapiens, UniProt Q9NYK1); test: TLR7 inhibition reporter assay (HEK-Blue SEAP reporter, gardiquimod stimulation); conditions: HEK-Blue cells overexpressing human TLR7, SEAP reporter, gardiquimod 7.5 μM, 22 hour incubation
T3 construct: host or cells: HEK-Blue cells
T3 sequence (Q9NYK1 27-1049): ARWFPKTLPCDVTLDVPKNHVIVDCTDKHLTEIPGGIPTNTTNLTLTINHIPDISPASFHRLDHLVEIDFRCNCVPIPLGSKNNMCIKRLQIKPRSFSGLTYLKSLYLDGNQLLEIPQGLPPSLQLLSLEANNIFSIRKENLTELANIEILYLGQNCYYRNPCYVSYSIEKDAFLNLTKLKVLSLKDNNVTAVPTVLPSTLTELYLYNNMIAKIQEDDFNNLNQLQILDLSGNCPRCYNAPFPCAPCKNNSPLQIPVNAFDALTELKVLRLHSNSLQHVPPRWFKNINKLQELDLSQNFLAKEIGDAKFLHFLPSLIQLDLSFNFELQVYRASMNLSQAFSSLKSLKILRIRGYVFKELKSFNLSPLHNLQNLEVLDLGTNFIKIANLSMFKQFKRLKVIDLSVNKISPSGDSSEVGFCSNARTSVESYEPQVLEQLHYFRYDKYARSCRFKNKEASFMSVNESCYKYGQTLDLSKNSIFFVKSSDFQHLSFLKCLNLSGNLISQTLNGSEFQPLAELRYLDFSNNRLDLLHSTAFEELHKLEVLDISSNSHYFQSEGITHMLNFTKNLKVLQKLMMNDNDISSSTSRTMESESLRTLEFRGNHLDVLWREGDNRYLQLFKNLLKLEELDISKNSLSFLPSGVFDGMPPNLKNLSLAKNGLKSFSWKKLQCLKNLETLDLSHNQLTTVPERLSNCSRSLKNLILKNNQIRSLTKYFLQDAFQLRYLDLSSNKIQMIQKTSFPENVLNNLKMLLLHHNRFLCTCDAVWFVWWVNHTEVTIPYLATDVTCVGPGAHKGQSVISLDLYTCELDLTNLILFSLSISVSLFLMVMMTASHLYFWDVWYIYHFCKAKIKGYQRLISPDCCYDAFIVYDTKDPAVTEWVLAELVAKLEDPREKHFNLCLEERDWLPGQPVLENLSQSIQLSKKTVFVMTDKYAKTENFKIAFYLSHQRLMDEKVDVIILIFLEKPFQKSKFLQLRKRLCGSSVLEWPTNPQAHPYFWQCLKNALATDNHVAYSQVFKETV
Method in brief: as §1

| SMILES | IC50 (human TLR8) [nM] | IC50 (human TLR9) [µM] | IC50 (human TLR7) [nM] |
| --- | --- | --- | --- |
| Cc1cc(-c2[nH]c3ccc(C4CCN(C5CCN(C)C5=O)CC4)cc3c2C(C)C)cn(C)c1=O (stereo not drawn) [Example 127, 5-(3-isopropyl-5-(1-(1-methyl-2-oxopyrrolidin-3-yl)piperidin-4-yl)-1H-indol-2-yl)-1,3-dimethylpyridin-2(1H)-one] | 5.2 | 33.6 | 3.7 |
| COc1cc(-c2[nH]c3ccc(C4CCN(CC(=O)N(C)C)CC4)cc3c2C(C)C)cn(C)c1=O [Example 128, 2-(4-(3-isopropyl-2-(5-methoxy-1-methyl-6-oxo-1,6-dihydropyridin-3-yl)-1H-indol-5-yl)piperidin-1-yl)-N,N-dimethylacetamide] | 5.7 | 0.977 | 3 |
| CNC(=O)CN1CCC(c2ccc3[nH]c(-c4cc(OC)c(=O)n(C)c4)c(C(C)C)c3c2)CC1 [Example 129, 2-(4-(3-isopropyl-2-(5-methoxy-1-methyl-6-oxo-1,6-dihydropyridin-3-yl)-1H-indol-5-yl)piperidin-1-yl)-N-methylacetamide] | 8 | 2.93 | 5 |
| Cc1c(-c2[nH]c3ccc(C4CCN(CC(=O)N(C)C)CC4)cc3c2C(C)C)nn(C)c(=O)c1C [Example 130, 2-(4-(3-isopropyl-2-(1,4,5-trimethyl-6-oxo-1,6-dihydropyridazin-3-yl)-1H-indol-5-yl)piperidin-1-yl)-N,N-dimethylacetamide] | 25.9 | 8.51 | 290 |
| CNC(=O)CN1CCC(c2ccc3[nH]c(-c4nn(C)c(=O)c(C)c4C)c(C(C)C)c3c2)CC1 [Example 131, 2-(4-(3-isopropyl-2-(1,4,5-trimethyl-6-oxo-1,6-dihydropyridazin-3-yl)-1H-indol-5-yl)piperidin-1-yl)-N-methylacetamide] | 33.4 | 16.2 | 245 |
| CCn1cc(-c2[nH]c3ccc(C4CCN(CC(=O)NC)CC4)cc3c2C(C)C)cc(C)c1=O [Example 132, 2-(4-(2-(1-ethyl-5-methyl-6-oxo-1,6-dihydropyridin-3-yl)-3-isopropyl-1H-indol-5-yl)piperidin-1-yl)-N-methylacetamide] | 15.1 | 25.5 | 9 |
| CCn1cc(-c2[nH]c3ccc(C4CCN(CC(=O)N(C)C)CC4)cc3c2C(C)C)cc(C)c1=O [Example 133, 2-(4-(2-(1-ethyl-5-methyl-6-oxo-1,6-dihydropyridin-3-yl)-3-isopropyl-1H-indol-5-yl)piperidin-1-yl)-N,N-dimethylacetamide] | 6.2 | 14.9 | 24.1 |
| Cc1c(-c2[nH]c3ccc(C4CCN(CC(=O)N(C)C)CC4)cc3c2C(C)C)cn(C)c(=O)c1C [Example 134, 2-(4-(3-isopropyl-2-(1,4,5-trimethyl-6-oxo-1,6-dihydropyridin-3-yl)-1H-indol-5-yl)piperidin-1-yl)-N,N-dimethylacetamide] | 8.7 | 3.46 | 11.9 |
| CNC(=O)CN1CCC(c2ccc3[nH]c(-c4cn(C)c(=O)c(C)c4C)c(C(C)C)c3c2)CC1 [Example 135, 2-(4-(3-isopropyl-2-(1,4,5-trimethyl-6-oxo-1,6-dihydropyridin-3-yl)-1H-indol-5-yl)piperidin-1-yl)-N-methylacetamide] | 5.6 | 19 | 5.3 |
| CCn1cc(-c2[nH]c3ccc(C4CCN(CC(=O)N(C)C)CC4)cc3c2C(C)C)c(C)c(C)c1=O [Example 136, 2-(4-(2-(1-ethyl-4,5-dimethyl-6-oxo-1,6-dihydropyridin-3-yl)-3-isopropyl-1H-indol-5-yl)piperidin-1-yl)-N,N-dimethylacetamide] | 13.6 | 1.95 | 12 |
| CCn1cc(-c2[nH]c3ccc(C4CCN(CC(=O)NC)CC4)cc3c2C(C)C)c(C)c(C)c1=O [Example 137, 2-(4-(2-(1-ethyl-4,5-dimethyl-6-oxo-1,6-dihydropyridin-3-yl)-3-isopropyl-1H-indol-5-yl)piperidin-1-yl)-N-methylacetamide] | 12.3 | 11.5 | 19.9 |
| Cc1cc(-c2[nH]c3ccc(C4CCN(CC(=O)N(C)C)CC4)cc3c2C(C)C)c(C)n(C)c1=O [Example 138, 2-(4-(3-isopropyl-2-(1,2,5-trimethyl-6-oxo-1,6-dihydropyridin-3-yl)-1H-indol-5-yl)piperidin-1-yl)-N,N-dimethylacetamide] | 5.2 | 7.61 | 17.5 |
| CNC(=O)CN1CCC(c2ccc3[nH]c(-c4cc(C)c(=O)n(C)c4C)c(C(C)C)c3c2)CC1 [Example 139, 2-(4-(3-isopropyl-2-(1,2,5-trimethyl-6-oxo-1,6-dihydropyridin-3-yl)-1H-indol-5-yl)piperidin-1-yl)-N-methylacetamide] | 4.2 | 10.4 | 15.4 |
